Legend:
Type in all cases: in vivo
Spodoptera littoralis = test: Activity against Spodoptera littoralis (Egyptian cotton leaf worm), cotton leaf discs, L1 larvae; conditions: foliar, 72 h, application rate 200 ppm, 3 days after infestation, read-out: control in at least one of the three categories (mortality, anti-feedant effect, or growth inhibition)
Method: Example B8: Activity Against Spodoptera littoralis (Egyptian Cotton Leaf Worm)
Cotton leaf discs were placed onto agar in 24-well microtiter plates and sprayed with aqueous test solutions prepared from 10′000 ppm DMSO stock solutions. After drying the leaf discs were infested with five L1 larvae. The samples were assessed for mortality, anti-feeding effect, and growth inhibition in comparison to untreated samples 3 days after infestation. Control of Spodoptera littoralis by a test sample is given when at least one of the categories mortality, anti-feedant effect, and growth inhibition is higher than the untreated sample.

Plutella xylostella = test: Activity against Plutella xylostella (diamond back moth), artificial diet, eggs; conditions: 192 h, application rate 200 ppm, 8 days after infestation, read-out: control in at least one of the two categories (mortality or growth inhibition)
Method: Example B7: Activity Against Plutella xylostella (Diamond Back Moth)
24-well microtiter plates with artificial diet were treated with aqueous test solutions prepared from 10′000 ppm DMSO stock solutions by pipetting. After drying, Plutella eggs were pipetted through a plastic stencil onto a gel blotting paper and the plate was closed with it. The samples were assessed for mortality and growth inhibition in comparison to untreated samples 8 days after infestation.

Diabrotica balteata = test: Activity against Diabrotica balteata (corn root worm), maize sprouts, L2 larvae; conditions: 96 h, application rate 200 ppm, 4 days after infestation, read-out: control in at least one of the two categories (mortality or growth inhibition)
Method: Example B2: Activity Against Diabrotica Balteata (Corn Root Worm)
Maize sprouts placed onto an agar layer in 24-well microtiter plates were treated with aqueous test solutions prepared from 10′000 ppm DMSO stock solutions by spraying. After drying, the plates were infested with L2 larvae (6 to 10 per well). The samples were assessed for mortality and growth inhibition in comparison to untreated samples 4 days after infestation.

Myzus persicae [1] = test: Activity against Myzus persicae (green peach aphid), feeding/contact activity; conditions: 144 h, application rate 200 ppm, 6 days after infestation
Method: Example B5: Activity Against Myzus persicae (Green Peach Aphid). Feeding/Contact Activity
Sunflower leaf discs were placed onto agar in a 24-well microtiter plate and sprayed with aqueous test solutions prepared from 10′000 ppm DMSO stock solutions. After drying, the leaf discs were infested with an aphid population of mixed ages. The samples were assessed for mortality 6 days after infestation.

Euschistus heros = test: Activity against Euschistus heros (neotropical brown stink bug), soybean leaves, N2 nymphs; conditions: 120 h, application rate 200 ppm, 5 days after infestation, read-out: effect in at least one of the two categories (mortality or growth inhibition)
Method: Example B3: Activity Against Euschistus heros (Neotropical Brown Stink Bug)
Soybean leaves on agar in 24-well microtiter plates were sprayed with aqueous test solutions prepared from 10′000 ppm DMSO stock solutions. After drying the leaves were infested with N2 nymphs. The samples were assessed for mortality and growth inhibition in comparison to untreated samples 5 days after infestation.

Myzus persicae [2] = test: Activity against Myzus persicae (green peach aphid), intrinsic activity; conditions: 120 h, test rate 12 ppm, 5 days after infestation
Description: Example B6: Activity Against Myzus persicae (Green Peach Aphid). Intrinsic Activity
Test compounds prepared from 10′000 ppm DMSO stock solutions were applied by pipette into 24-well microtiter plates and mixed with sucrose solution. The plates were closed with a stretched Parafilm. A plastic stencil with 24 holes was placed onto the plate and infested pea seedlings were placed directly on the Parafilm. The infested plate was closed with a gel blotting paper and another plastic stencil and then turned upside down. The samples were assessed for mortality 5 days after infestation.

Chilo suppressalis = test: Activity against Chilo suppressalis (striped rice stemborer), artificial diet, L2 larvae; conditions: 144 h, application rate 200 ppm, 6 days after infestation, read-out: control in at least one of the three categories (mortality, anti-feedant effect, or growth inhibition)
Method: Example B1: Activity Against Chilo suppressalis (Striped Rice Stemborer)
24-well microtiter plates with artificial diet were treated with aqueous test solutions prepared from 10′000 ppm DMSO stock solutions by pipetting. After drying, the plates were infested with L2 larvae (6-8 per well). The samples were assessed for mortality, anti-feeding effect, and growth inhibition in comparison to untreated samples 6 days after infestation. Control of Chilo suppressalis by a test sample is given when at least one of the categories mortality, anti-feedant effect, and growth inhibition is higher than the untreated sample.

CCn1nc(-n2ncnc2[C@H](C)NC(=O)c2cc(Cl)cc(C(F)(F)F)c2)ccc1=O [P16, 3-chloro-N-[(1S)-1-[2-(1-ethyl-6-oxo-pyridazin-3-yl)-1,2,4-triazol-3-yl]ethy]-5-(trifluoromethyl)benzamide]
≥ 80%: percent control (mortality, anti-feedant effect or growth inhibition) at 200 ppm (Spodoptera littoralis) | percent control (mortality or growth inhibition) at 200 ppm (Plutella xylostella) | percent control (mortality or growth inhibition) at 200 ppm (Diabrotica balteata) | mortality at 200 ppm (Myzus persicae [1]) | percent effect (mortality or growth inhibition) at 200 ppm (Euschistus heros) | mortality at 12 ppm (Myzus persicae [2]) | percent control (mortality, anti-feedant effect or growth inhibition) at 200 ppm (Chilo suppressalis)

C[C@H](NC(=O)c1cc(Cl)cc(S(=O)(=O)C(F)(F)F)c1)c1ncnn1-c1ccc(=O)n(C)n1 [P20, 3-chloro-N-[(1S)-1-[2-(1-methyl-6-oxo-pyridazin-3-yl)-1,2,4-triazol-3-yl]ethyl]-5-(trifluoromethylsulfonyl) benzamide]
≥ 80%: percent control (mortality, anti-feedant effect or growth inhibition) at 200 ppm (Spodoptera littoralis) | percent control (mortality or growth inhibition) at 200 ppm (Plutella xylostella) | percent control (mortality or growth inhibition) at 200 ppm (Diabrotica balteata) | mortality at 200 ppm (Myzus persicae [1]) | percent effect (mortality or growth inhibition) at 200 ppm (Euschistus heros) | mortality at 12 ppm (Myzus persicae [2]) | percent control (mortality, anti-feedant effect or growth inhibition) at 200 ppm (Chilo suppressalis)

C[C@@H](c1ncnn1C1=NN(C)C(=O)CC1)N(C)C(=O)c1cc(Cl)cc(C(F)(F)F)c1 [P23, 3-chloro-N-methyl-N-[(1S)-1-[2-(1-methyl-6-oxo-4,5-dihydropyridazin-3-yl)-1,2,4-triazol-3-yl]ethyl]-5-(trifluoromethyl)benzamide]
≥ 80%: percent control (mortality, anti-feedant effect or growth inhibition) at 200 ppm (Spodoptera littoralis) | percent control (mortality or growth inhibition) at 200 ppm (Plutella xylostella) | percent control (mortality or growth inhibition) at 200 ppm (Diabrotica balteata) | mortality at 200 ppm (Myzus persicae [1]) | percent effect (mortality or growth inhibition) at 200 ppm (Euschistus heros) | mortality at 12 ppm (Myzus persicae [2]) | percent control (mortality, anti-feedant effect or growth inhibition) at 200 ppm (Chilo suppressalis)

C[C@H](NC(=O)c1cc(Cl)cc(OC(F)(F)F)c1)c1ncnn1-c1ccc(=O)n(C)n1 [P26, 3-chloro-N-[(1S)-1-[2-(1-methyl-6-oxo-pyridazin-3-yl)-1,2,4-triazol-3-yl]ethyl]-5-(trifluoromethoxy)benzamide]
≥ 80%: percent control (mortality, anti-feedant effect or growth inhibition) at 200 ppm (Spodoptera littoralis) | percent control (mortality or growth inhibition) at 200 ppm (Plutella xylostella) | percent control (mortality or growth inhibition) at 200 ppm (Diabrotica balteata) | mortality at 200 ppm (Myzus persicae [1]) | percent effect (mortality or growth inhibition) at 200 ppm (Euschistus heros) | mortality at 12 ppm (Myzus persicae [2]) | percent control (mortality, anti-feedant effect or growth inhibition) at 200 ppm (Chilo suppressalis)

C[C@H](NC(=O)c1cc(Cl)cc(Br)c1)c1ncnn1-c1ccc(=O)n(C)n1 [P27, 3-bromo-5-chloro-N-[(1S)-1-[2-(1-methyl-6-oxo-pyridazin-3-yl)-1,2,4-triazol-3-yl]ethyl]benzamide]
≥ 80%: percent control (mortality, anti-feedant effect or growth inhibition) at 200 ppm (Spodoptera littoralis) | percent control (mortality or growth inhibition) at 200 ppm (Plutella xylostella) | percent control (mortality or growth inhibition) at 200 ppm (Diabrotica balteata) | mortality at 200 ppm (Myzus persicae [1]) | percent effect (mortality or growth inhibition) at 200 ppm (Euschistus heros) | mortality at 12 ppm (Myzus persicae [2]) | percent control (mortality, anti-feedant effect or growth inhibition) at 200 ppm (Chilo suppressalis)

C[C@H](NC(=O)c1cc(Cl)cc(I)c1)c1ncnn1-c1ccc(=O)n(C)n1 [P28, 3-chloro-5-iodo-N-[(1S)-1-[2-(1-methyl-6-oxo-pyridazin-3-yl)-1,2,4-triazol-3-yl]ethyl]benzamide]
≥ 80%: percent control (mortality, anti-feedant effect or growth inhibition) at 200 ppm (Spodoptera littoralis) | percent control (mortality or growth inhibition) at 200 ppm (Plutella xylostella) | percent control (mortality or growth inhibition) at 200 ppm (Diabrotica balteata) | mortality at 200 ppm (Myzus persicae [1]) | percent effect (mortality or growth inhibition) at 200 ppm (Euschistus heros) | mortality at 12 ppm (Myzus persicae [2]) | percent control (mortality, anti-feedant effect or growth inhibition) at 200 ppm (Chilo suppressalis)

C[C@H](NC(=O)c1cc(Br)cc(Br)c1)c1ncnn1-c1ccc(=O)n(C)n1 [P29, 3,5-dibromo-N-[(1S)-1-[2-(1-methyl-6-oxo-pyridazin-3-yl)-1,2,4-triazol-3-yl]ethyl]benzamide]
≥ 80%: percent control (mortality, anti-feedant effect or growth inhibition) at 200 ppm (Spodoptera littoralis) | percent control (mortality or growth inhibition) at 200 ppm (Plutella xylostella) | percent control (mortality or growth inhibition) at 200 ppm (Diabrotica balteata) | mortality at 200 ppm (Myzus persicae [1]) | percent effect (mortality or growth inhibition) at 200 ppm (Euschistus heros) | mortality at 12 ppm (Myzus persicae [2]) | percent control (mortality, anti-feedant effect or growth inhibition) at 200 ppm (Chilo suppressalis)

C[C@H](NC(=O)c1cc(Br)cc(I)c1)c1ncnn1-c1ccc(=O)n(C)n1 [P30, 3-bromo-5-iodo-N-[(1S)-1-[2-(1-methyl-6-oxo-pyridazin-3-yl)-1,2,4-triazol-3-yl]ethyl]benzamide]
≥ 80%: percent control (mortality, anti-feedant effect or growth inhibition) at 200 ppm (Spodoptera littoralis) | percent control (mortality or growth inhibition) at 200 ppm (Plutella xylostella) | percent control (mortality or growth inhibition) at 200 ppm (Diabrotica balteata) | mortality at 200 ppm (Myzus persicae [1]) | percent effect (mortality or growth inhibition) at 200 ppm (Euschistus heros) | mortality at 12 ppm (Myzus persicae [2]) | percent control (mortality, anti-feedant effect or growth inhibition) at 200 ppm (Chilo suppressalis)

CC(NC(=O)c1cc(C(F)(F)F)nc(C2(C#N)CC2)c1)c1nccnc1-c1ccc(=O)n(C)n1 (stereo not drawn) [P32, 2-(1-cyanocyclopropyl)-N-[1-[3-(1-methyl-6-oxo-pyridazin-3-yl)pyrazin-2-yl]ethyl]-6-(trifluoromethyl)pyridine-4-carboxamide]
≥ 80%: percent control (mortality, anti-feedant effect or growth inhibition) at 200 ppm (Spodoptera littoralis) | percent control (mortality or growth inhibition) at 200 ppm (Plutella xylostella) | percent control (mortality or growth inhibition) at 200 ppm (Diabrotica balteata) | mortality at 200 ppm (Myzus persicae [1]) | percent effect (mortality or growth inhibition) at 200 ppm (Euschistus heros) | mortality at 12 ppm (Myzus persicae [2]) | percent control (mortality, anti-feedant effect or growth inhibition) at 200 ppm (Chilo suppressalis)

C[C@H](NC(=O)c1cc(C(F)(F)F)nc(C2(C#N)CC2)c1)c1ncnn1-c1ccc(=O)n(C)n1 [P33, 2-(1-cyanocyclopropyl)-N-[(1S)-1-[2-(1-methyl-6-oxo-pyridazin-3-yl)-1,2,4-triazol-3-yl]ethyl]-6-(trifluoromethyl)pyridine-4-carboxamide]
≥ 80%: percent control (mortality, anti-feedant effect or growth inhibition) at 200 ppm (Spodoptera littoralis) | percent control (mortality or growth inhibition) at 200 ppm (Plutella xylostella) | percent control (mortality or growth inhibition) at 200 ppm (Diabrotica balteata) | mortality at 200 ppm (Myzus persicae [1]) | percent effect (mortality or growth inhibition) at 200 ppm (Euschistus heros) | mortality at 12 ppm (Myzus persicae [2]) | percent control (mortality, anti-feedant effect or growth inhibition) at 200 ppm (Chilo suppressalis)

C[C@H](NC(=O)c1cc(Br)cc(OC(F)(F)F)c1)c1ncnn1-c1ccc(=O)n(C)n1 [P40, 3-bromo-N-[(1S)-1-[2-(1-methyl-6-oxo-pyridazin-3-yl)-1,2,4-triazol-3-yl]ethyl]-5-(trifluoromethoxy)benzamide]
≥ 80%: percent control (mortality, anti-feedant effect or growth inhibition) at 200 ppm (Spodoptera littoralis) | percent control (mortality or growth inhibition) at 200 ppm (Plutella xylostella) | percent control (mortality or growth inhibition) at 200 ppm (Diabrotica balteata) | mortality at 200 ppm (Myzus persicae [1]) | percent effect (mortality or growth inhibition) at 200 ppm (Euschistus heros) | mortality at 12 ppm (Myzus persicae [2]) | percent control (mortality, anti-feedant effect or growth inhibition) at 200 ppm (Chilo suppressalis)

C[C@H](NC(=O)c1cc(C(F)(F)F)cc(C(C)(C)C#N)c1)c1ncnn1-c1ccc(=O)n(C)n1 [P43, 3-(1-cyano-1-methyl-ethyl)-N-[(1S)-1-[2-(1-methyl-6-oxo-pyridazin-3-yl)-1,2,4-triazol-3-yl]ethyl]-5-(trifluoromethyl)benzamide]
≥ 80%: percent control (mortality, anti-feedant effect or growth inhibition) at 200 ppm (Spodoptera littoralis) | percent control (mortality or growth inhibition) at 200 ppm (Plutella xylostella) | percent control (mortality or growth inhibition) at 200 ppm (Diabrotica balteata) | mortality at 200 ppm (Myzus persicae [1]) | percent effect (mortality or growth inhibition) at 200 ppm (Euschistus heros) | mortality at 12 ppm (Myzus persicae [2]) | percent control (mortality, anti-feedant effect or growth inhibition) at 200 ppm (Chilo suppressalis)

From patent US20250042875A1, “PESTICIDALLY ACTIVE PYRIDAZINONE COMPOUNDS” (SYNGENTA CROP PROTECTION AG, priority 2021, published 2025)
